Data reported in the supplement of paper PMC10307832.

What was measured:
Assay in all cases: relative viability (nuclei count vs DMSO), 5 days (fraction); higher = more cells survive
A-427 = system: A-427
How it was run: (§1)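 Dosing by pin tool came one day after lung cancer cell lines were seeded in 1536-well plates, using either one drug or a fixed anchor-drug dose plus five library-drug doses (not always all listed) in √10 steps. After 5 days, nuclei were counted on 4× images. Relative viability is treated-well nuclei count divided by vehicle-well nuclei count, and values are medians of duplicate plates.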

HCC-366 = system: HCC-366
How it was run: as §1

HCC-827 = system: HCC-827
How it was run: as §1

LC-2-ad = system: LC-2-ad
How it was run: as §1

NCI-H1355 = system: NCI-H1355
How it was run: as §1

NCI-H1734 = system: NCI-H1734
How it was run: as §1

NCI-H1755 = system: NCI-H1755
How it was run: as §1

NCI-H1792 = system: NCI-H1792
How it was run: as §1

NCI-H1915 = system: NCI-H1915
How it was run: as §1

NCI-H1975 = system: NCI-H1975
How it was run: as §1

NCI-H1993 = system: NCI-H1993
How it was run: as §1

NCI-H2170 = system: NCI-H2170
How it was run: as §1

NCI-H2228 = system: NCI-H2228
How it was run: as §1

NCI-H2347 = system: NCI-H2347
How it was run: as §1

NCI-H23 = system: NCI-H23
How it was run: as §1

RERF-LC-KJ = system: RERF-LC-KJ
How it was run: as §1

SK-LU-1 = system: SK-LU-1
How it was run: as §1

SK-MES-1 = system: SK-MES-1
How it was run: as §1

SW 1573 = system: SW 1573
How it was run: as §1

UMC-11 = system: UMC-11
How it was run: as §1

**Q.** What does the source list for `CN1CCN(CCOc2cc(OC3CCOCC3)c3c(Nc4c(Cl)ccc5c4OCO5)ncnc3c2)CC1` [Saracatinib] + CC1(C)CCC(c2ccc(Cl)cc2)=C(CN2CCN(c3ccc(C(=O)NS(=O)(=O)c4ccc(N[C@H](CCN5CCOCC5)CSc5ccccc5)c(S(=O)(=O)C(F)(F)F)c4)cc3)CC2)C1 [Navitoclax] (partner 0.5 µM)?
**A.** relative viability (A-427; first compound 0.02 µM): 0.999; relative viability (A-427; first compound 0.2 µM): 0.854; relative viability (A-427; first compound 0.6325 µM): 1; relative viability (A-427; first compound 2 µM): 0.918; relative viability (HCC-366; first compound 0.02 µM): 1.03; relative viability (HCC-366; first compound 0.6325 µM): 1.08; relative viability (HCC-366; first compound 2 µM): 0.7; relative viability (HCC-827; first compound 0.02 µM): 0.979; relative viability (HCC-827; first compound 0.2 µM): 0.808; relative viability (HCC-827; first compound 0.6325 µM): 0.368; relative viability (HCC-827; first compound 2 µM): 0.137; relative viability (LC-2-ad; first compound 0.02 µM): 0.453; relative viability (LC-2-ad; first compound 0.6325 µM): 0.448; relative viability (LC-2-ad; first compound 2 µM): 0.348; relative viability (NCI-H1355; first compound 0.02 µM): 0.988; relative viability (NCI-H1355; first compound 0.2 µM): 0.895; relative viability (NCI-H1355; first compound 0.6325 µM): 0.928; relative viability (NCI-H1355; first compound 2 µM): 0.901; relative viability (NCI-H1734; first compound 0.02 µM): 0.854; relative viability (NCI-H1734; first compound 0.6325 µM): 0.767; relative viability (NCI-H1734; first compound 2 µM): 0.697; relative viability (NCI-H1755; first compound 0.02 µM): 0.981; relative viability (NCI-H1755; first compound 0.2 µM): 0.681; relative viability (NCI-H1755; first compound 0.6325 µM): 0.874; relative viability (NCI-H1755; first compound 2 µM): 0.588; relative viability (NCI-H1792; first compound 0.02 µM): 0.635; relative viability (NCI-H1792; first compound 0.2 µM): 0.489; relative viability (NCI-H1792; first compound 0.6325 µM): 0.723; relative viability (NCI-H1792; first compound 2 µM): 0.583; relative viability (NCI-H1915; first compound 0.02 µM): 0.813; relative viability (NCI-H1915; first compound 0.2 µM): 0.456; relative viability (NCI-H1915; first compound 0.6325 µM): 0.8; relative viability (NCI-H1915; first compound 2 µM): 0.757; relative viability (NCI-H1975; first compound 0.02 µM): 1.17; relative viability (NCI-H1975; first compound 0.6325 µM): 1.06; relative viability (NCI-H1975; first compound 2 µM): 0.749; relative viability (NCI-H1993; first compound 0.02 µM): 0.848; relative viability (NCI-H1993; first compound 0.2 µM): 0.78; relative viability (NCI-H1993; first compound 2 µM): 0.769; relative viability (NCI-H2170; first compound 0.02 µM): 0.57; relative viability (NCI-H2170; first compound 0.2 µM): 0.564; relative viability (NCI-H2170; first compound 0.6325 µM): 0.609; relative viability (NCI-H2170; first compound 2 µM): 0.39; relative viability (NCI-H2228; first compound 0.02 µM): 1.29; relative viability (NCI-H2228; first compound 0.2 µM): 0.831; relative viability (NCI-H2228; first compound 0.6325 µM): 1.24; relative viability (NCI-H2228; first compound 2 µM): 0.459; relative viability (NCI-H2347; first compound 0.02 µM): 0.725; relative viability (NCI-H2347; first compound 0.2 µM): 0.686; relative viability (NCI-H2347; first compound 0.6325 µM): 0.862; relative viability (NCI-H2347; first compound 2 µM): 0.599; relative viability (NCI-H23; first compound 0.02 µM): 0.815; relative viability (NCI-H23; first compound 0.6325 µM): 0.847; relative viability (NCI-H23; first compound 2 µM): 0.52; relative viability (RERF-LC-KJ; first compound 0.02 µM): 0.817; relative viability (RERF-LC-KJ; first compound 0.2 µM): 1.17; relative viability (RERF-LC-KJ; first compound 0.6325 µM): 0.959; relative viability (RERF-LC-KJ; first compound 2 µM): 0.934; relative viability (SK-LU-1; first compound 0.02 µM): 0.752; relative viability (SK-LU-1; first compound 0.2 µM): 0.535; relative viability (SK-LU-1; first compound 0.6325 µM): 0.527; relative viability (SK-LU-1; first compound 2 µM): 0.412; relative viability (SK-MES-1; first compound 0.02 µM): 1.24; relative viability (SK-MES-1; first compound 0.2 µM): 1.16; relative viability (SK-MES-1; first compound 0.6325 µM): 1.21; relative viability (SK-MES-1; first compound 2 µM): 0.727; relative viability (SW 1573; first compound 0.02 µM): 0.958; relative viability (SW 1573; first compound 0.2 µM): 0.969; relative viability (SW 1573; first compound 0.6325 µM): 0.919; relative viability (SW 1573; first compound 2 µM): 0.838; relative viability (UMC-11; first compound 0.02 µM): 0.318; relative viability (UMC-11; first compound 0.6325 µM): 0.295; relative viability (UMC-11; first compound 2 µM): 0.267
